Laboratory results from publication PMC11904993, “Humanized Candida and NanoBiT Assays Expedite Discovery of Bdf1 Bromodomain Inhibitors With Antifungal Potential” (Advanced Science, 2025).
Several values for one entry are separate records, joined by “and”; a condition that tells them apart may be missing. Equal entries are not always repeated. Where two headings read alike, the source gives them in different places.

Legend:
C. auris Bdf1 BD2 = C. auris Bdf1 BD2 (Candidozyma auris (Candida auris), UniProt A0AAW0VEM6); experiment: HTRF assay, inhibition of H4ac4 peptide binding
C. auris Bdf1 BD2, sequence (A0AAW0VEM6 entry or part of it): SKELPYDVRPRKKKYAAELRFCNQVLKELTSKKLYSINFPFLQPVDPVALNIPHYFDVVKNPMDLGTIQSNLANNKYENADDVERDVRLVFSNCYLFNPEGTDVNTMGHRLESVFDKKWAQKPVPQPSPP

Bmh1/Bmh2 = experiment: NanoBiT assay, control pair; assay type: cell-based, S. cerevisiae; design: Normalized nanoBiT signal: unit of the concentration uncertain; details: for Normalized nanoBiT signal: Bmh1-LgBiT, Bmh2-SmBiT, Fig 4C
Method: Yeast strains were distributed in 96‐well microplates containing SC(MSG)‐U medium (SC‐U medium with 0.1% monosodium glutamate instead of ammonium sulfate as a nitrogen source) and grown at 30 °C. 40 µL of exponentially growing cells were transferred in white 96‐well half‐area microplates (ProxiPlate Plus, Greiner Bio‐One) previously filled with 40 µL per well of SC(MSG) containing 100 µM furimazine. The microplates were then incubated for 10 min in the dark before the luminescence signals were recorded using a microplate reader (Ensight, PerkinElmer). Luminescence measurements were performed for 1 s per well at a distance of 0.1 mm between the plate and the detector. The luminescence values were normalized with the optical density (OD600) of the corresponding cultures. For NanoBiT assays with BET inhibitors, yeast cultures were grown overnight at 30 °C in SC(MSG) medium in the presence of serial dilutions of 24c and I‐BET726. Overnight cultures were diluted 5 fold in SC(MSG) and incubated for 1 h before luminescence was recorded as previously indicated. Luminescence values for each condition were normalized using the average of the luminescence recorded for the Bdf1/Swc4 and Bmh1/Bmh2 controls.

[1] = test system: C. glabrata strains expressing WT and mutant Bdf1; experiment: Growth inhibition in liquid media, C. glabrata lab strains; details: for pEC50 growth inhibition: Fig 2C; for % Growth (OD at 600 nm): Fig 2F
Method: Growth on Liquid Media with C. glabrata Lab Strains: Cells were grown at 30 °C in SC+M+C‐U medium (SC medium with 5 mM methionine, 0.25 mM cysteine, without uracil) to an OD600 of 0.5–0.8. […] Plates were incubated at 30 °C and OD600 was measured using a Multiskan FC Microplate Photometer (Thermo Fisher).

**Q.** Cc1ccc(-c2nnc(C)c(NCc3ccc(C)o3)n2)cc1 [Compound 24c, 6‐methyl‐N‐((5‐methylfuran‐2‐yl)methyl)‐3‐(p‐tolyl)‐1,2,4‐triazin‐5‐amine] was tested. Which remaining activity at 20 µM (C. auris Bdf1 BD2; CauBD2, 24c 20.00 microM, Exp1-3, read-out: Percent HTRF Signal) did it give?
**A.** 79.1%

**Q.** And the “inhibition of Bdf1 BD2 from C. auris” value (C. auris Bdf1 BD2; HTRF, Fig S9C)?
**A.** weakly inhibited

**Q.** What about the “Normalized nanoBiT signal” value (Bmh1/Bmh2; 0.1953 (unit uncertain)) of the same compound?
**A.** 107% and 92% and 96% and 99%

**Q.** And the “Normalized nanoBiT signal” value (Bmh1/Bmh2; 0.3906 (unit uncertain))?
**A.** 88% and 99% and 103%

**Q.** And the “Normalized nanoBiT signal” value (Bmh1/Bmh2; 0.7813 (unit uncertain))?
**A.** 86% and 104% and 98% and 103%

**Q.** What about the “Normalized nanoBiT signal” value (Bmh1/Bmh2; 1.5625 (unit uncertain)) of the same compound?
**A.** 100% and 97% and 101%

**Q.** What about the “Normalized nanoBiT signal” value (Bmh1/Bmh2; 3.1250 (unit uncertain)) of the same compound?
**A.** 93% and 97% (2×) and 103%

**Q.** And the “Normalized nanoBiT signal” value (Bmh1/Bmh2; 50.0000 (unit uncertain))?
**A.** 79% and 98% and 101% and 93%

**Q.** What about the “Normalized nanoBiT signal” value (Bmh1/Bmh2; 100.0000 (unit uncertain)) of the same compound?
**A.** 95% and 97% and 100% and 88%

**Q.** And the “inhibition of NanoBiT signal, Bmh1/Bmh2” value (Bmh1/Bmh2; unrelated control pair)?
**A.** not observed

**Q.** And the pEC50 growth inhibition ([1]; strain BD1 Y-F, single experiments Exp1-3)?
**A.** 4.034 and 3.821

**Q.** And the pEC50 growth inhibition ([1]; strain BD2 Y-F, single experiments Exp1-3)?
**A.** 4.481 and 4.395

**Q.** And the “pEC50 (WT BDF1)” value ([1]; Fig 2D, WT C. glabrata, single experiments Exp1-3)?
**A.** 4.014 and 4.016

**Q.** And the “% Growth (OD at 600 nm)” value ([1]; WT BDF1, 6.25 microM)?
**A.** 98% and 99% and 101%

**Q.** And the “% Growth (OD at 600 nm)” value ([1]; WT BDF1, 12.5 microM)?
**A.** 95% and 97% and 99%

**Q.** And the “% Growth (OD at 600 nm)” value ([1]; WT BDF1, 25 microM)?
**A.** 88% and 91% and 95%

**Q.** And the “% Growth (OD at 600 nm)” value ([1]; WT BDF1, 50 microM)?
**A.** 65% and 71% and 69%

**Q.** What about the “% Growth (OD at 600 nm)” value ([1]; WT BDF1, 100 microM) of the same compound?
**A.** 44% and 45% and 46%

**Q.** What about the “% Growth (OD at 600 nm)” value ([1]; bdf1-bd1Y166F, 6.25 microM) of the same compound?
**A.** 99% and 101% and 98%

**Q.** What about the “% Growth (OD at 600 nm)” value ([1]; bdf1-bd1Y166F, 12.5 microM) of the same compound?
**A.** 102% and 92% and 98%

**Q.** What about the “% Growth (OD at 600 nm)” value ([1]; bdf1-bd1Y166F, 25 microM) of the same compound?
**A.** 92% and 82% and 97%

**Q.** And the “% Growth (OD at 600 nm)” value ([1]; bdf1-bd1Y166F, 50 microM)?
**A.** 88% and 74% and 81%

**Q.** And the “% Growth (OD at 600 nm)” value ([1]; bdf1-bd1Y166F, 100 microM)?
**A.** 50% and 44% and 56%

**Q.** What about the “% Growth (OD at 600 nm)” value ([1]; bdf1-bd1Δ, 6.25 microM) of the same compound?
**A.** 98% and 99% and 93%

**Q.** What about the “% Growth (OD at 600 nm)” value ([1]; bdf1-bd1Δ, 12.5 microM) of the same compound?
**A.** 93% and 98% and 97%

**Q.** And the “% Growth (OD at 600 nm)” value ([1]; bdf1-bd1Δ, 25 microM)?
**A.** 88% and 86% and 96%

**Q.** What about the “% Growth (OD at 600 nm)” value ([1]; bdf1-bd1Δ, 50 microM) of the same compound?
**A.** 78% and 74% and 87%

**Q.** And the “% Growth (OD at 600 nm)” value ([1]; bdf1-bd1Δ, 100 microM)?
**A.** 50% and 43% and 61%

**Q.** What about the “% Growth (OD at 600 nm)” value ([1]; bdf1-bd2Y343F, 6.25 microM) of the same compound?
**A.** 89% and 90% and 88%

**Q.** And the “% Growth (OD at 600 nm)” value ([1]; bdf1-bd2Y343F, 12.5 microM)?
**A.** 80% and 76% and 84%

**Q.** And the “% Growth (OD at 600 nm)” value ([1]; bdf1-bd2Y343F, 25 microM)?
**A.** 68% and 61% and 66%

**Q.** And the “% Growth (OD at 600 nm)” value ([1]; bdf1-bd2Y343F, 50 microM)?
**A.** 40% and 46%

**Q.** And the “% Growth (OD at 600 nm)” value ([1]; bdf1-bd2Y343F, 100 microM)?
**A.** 20% and 22%

**Q.** What about the “% Growth (OD at 600 nm)” value ([1]; bdf1-bd2Δ, 6.25 microM) of the same compound?
**A.** 68% and 85%

**Q.** What about the “% Growth (OD at 600 nm)” value ([1]; bdf1-bd2Δ, 12.5 microM) of the same compound?
**A.** 64% and 70% and 59%

**Q.** And the “% Growth (OD at 600 nm)” value ([1]; bdf1-bd2Δ, 25 microM)?
**A.** 40% and 63% and 41%

**Q.** What about the “% Growth (OD at 600 nm)” value ([1]; bdf1-bd2Δ, 50 microM) of the same compound?
**A.** 30% and 38% and 23%

**Q.** And the “%Growth” value ([1]; Fig 3D, 50 µM, WT BDF1-flag, Exp 1-3)?
**A.** 54.5% and 57.2% and 54.2%

**Q.** What about the EC50 ([1]; Nakaseomyces glabratus, read-out: EC50 (μM) growth inhibition, strain WT BDF1 (both BDs active)) of the same compound?
**A.** 90 µM

**Q.** And the EC50 ([1]; Nakaseomyces glabratus, read-out: EC50 (μM) growth inhibition, strain bdf1-Y166F (active BD: BD2))?
**A.** ~100 µM

**Q.** And the EC50 ([1]; Nakaseomyces glabratus, read-out: EC50 (μM) growth inhibition, strain bdf1-Y343F (active BD: BD1))?
**A.** 36.6 ± 33 µM

**Q.** What about the EC50 ([1]; Nakaseomyces glabratus, read-out: EC50 (μM) growth inhibition, strain bdf1-bd1Δ (active BD: BD2)) of the same compound?
**A.** ~100 µM

**Q.** What about the EC50 ([1]; Nakaseomyces glabratus, read-out: EC50 (μM) growth inhibition, strain bdf1-bd2Δ (active BD: BD1)) of the same compound?
**A.** 22.7 ± 7.9 µM

**Q.** And the EC50 ([1]; Nakaseomyces glabratus, read-out: pEC50 (WT BDF1), Fig 2D (converted), WT C. glabrata, single experiments Exp1-3)?
**A.** 86.5 µM

**Q.** What about the EC50 ([1]; Nakaseomyces glabratus, read-out: pEC50 growth inhibition, Fig 2C (converted), strain BD1 Y-F, single experiments Exp1-3) of the same compound?
**A.** 107 µM

**Q.** And the EC50 ([1]; Nakaseomyces glabratus, read-out: pEC50 growth inhibition, Fig 2C (converted), strain BD2 Y-F, single experiments Exp1-3)?
**A.** 36.4 µM

**Q.** And the EC50 ([1]; read-out: EC50 (μM) growth inhibition, strain WT BDF1 (both BDs active))?
**A.** 93 µM
